# Measured values taken from the supplement of paper PMC10307832.
# Legend:
# Experiment in all cases: relative viability (nuclei count vs DMSO), 5 days (fraction); higher = more cells survive
# [1] = compound: CC1=CN=C(N=C1C2=CNC(=C2)C(=O)N[C@H](CO)C3=CC(=CC=C3)Cl)NC4=C(C=C(C=C4)F)Cl [VX-11e] + CCNC(=O)c1noc(-c2cc(C(C)C)c(O)cc2O)c1-c1ccc(CN2CCOCC2)cc1 [Luminespib] (partner 0.01 µM)
# How it was run: (§1)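 Relative viability equals treated-well nuclei counts divided by vehicle-well nuclei counts. Counts came from 4× images of lung cancer cell lines grown in 1536-well plates for 5 days after pin-tool dosing on the day after seeding. Dosing used one drug alone or a fixed anchor-drug dose plus five library-drug doses (not always all listed) in √10 steps, and values are medians of duplicate plates.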
# [2] = compound: CC1=CN=C(N=C1C2=CNC(=C2)C(=O)N[C@H](CO)C3=CC(=CC=C3)Cl)NC4=C(C=C(C=C4)F)Cl [VX-11e] + COc1cccc2cc(-c3nc([C@H]4CC[C@H](C(=O)O)CC4)n4ncnc(N)c34)[nH]c12 [OSI-027] (partner 0.5 µM)
# How it was run: as §1
# [3] = compound: CC1=CN=C(N=C1C2=CNC(=C2)C(=O)N[C@H](CO)C3=CC(=CC=C3)Cl)NC4=C(C=C(C=C4)F)Cl [VX-11e] + CS(=O)(=O)CCNCc1ccc(-c2ccc3ncnc(Nc4ccc(OCc5cccc(F)c5)c(Cl)c4)c3c2)o1 [Lapatinib] (partner 2 µM)
# How it was run: as §1
# [4] = compound: CC1=CN=C(N=C1C2=CNC(=C2)C(=O)N[C@H](CO)C3=CC(=CC=C3)Cl)NC4=C(C=C(C=C4)F)Cl [VX-11e] + C[C@]1(O)C[C@@H](c2nc(-c3ccc4ccc(-c5ccccc5)nc4c3)c3c(N)nccn32)C1 [Linsitinib] (partner 1 µM)
# How it was run: as §1
Cell Line,relative viability ([1]; first compound 0.04 µM),relative viability ([1]; first compound 0.1265 µM),relative viability ([1]; first compound 0.4 µM),relative viability ([1]; first compound 1.265 µM),relative viability ([1]; first compound 4 µM),relative viability ([2]; first compound 0.04 µM),relative viability ([2]; first compound 0.1265 µM),relative viability ([2]; first compound 0.4 µM),relative viability ([2]; first compound 1.265 µM),relative viability ([2]; first compound 4 µM),relative viability ([3]; first compound 0.04 µM),relative viability ([3]; first compound 0.1265 µM),relative viability ([3]; first compound 0.4 µM),relative viability ([3]; first compound 1.265 µM),relative viability ([3]; first compound 4 µM),relative viability ([4]; first compound 0.04 µM),relative viability ([4]; first compound 0.1265 µM),relative viability ([4]; first compound 0.4 µM),relative viability ([4]; first compound 1.265 µM),relative viability ([4]; first compound 4 µM)
HARA,0.677,0.609,0.637,0.695,0.297,0.269,0.372,0.279,0.186,0.0641,0.673,0.653,0.79,0.666,0.374,1.01,0.9,1.02,1.04,0.417
H3255,0.773,0.963,0.819,0.686,0.89,0.52,0.601,0.559,0.637,0.407,0.245,0.222,0.286,0.281,0.232,1.01,0.815,0.971,0.956,0.879
UMC-11,1.01,1.02,1.02,0.948,0.94,0.36,0.435,0.41,0.379,0.428,0.546,0.94,0.712,0.602,0.758,0.935,0.937,1,1,0.989
NCI-H2170,0.878,0.639,0.566,0.802,0.436,0.589,0.624,0.155,0.649,0.453,0.229,0.259,0.231,0.243,0.252,,,,,
EMC-BAC-2,1.21,1.19,1.2,1.19,0.924,0.312,0.387,0.458,0.421,0.357,0.736,0.807,0.945,0.837,0.732,0.831,0.74,0.743,0.712,0.602
NCI-H3122,0.0662,0.0869,,0.0911,0.0987,0.892,0.898,,0.513,0.147,1.07,0.98,0.855,0.892,0.626,0.971,1.01,0.974,0.929,0.58
EPLC-272H,0.173,0.302,,0.293,0.148,0.257,0.219,,0.199,0.165,0.844,0.577,0.714,0.739,0.48,0.923,1.04,0.927,0.934,0.562
LU99A,0.3,0.249,0.209,0.336,0.172,0.257,0.324,0.249,0.286,0.256,1.03,0.913,0.864,0.253,0.235,0.539,0.456,0.623,0.42,0.207
LXF-289,0.641,0.592,0.659,0.656,0.407,0.686,0.58,0.174,0.517,0.358,0.895,0.869,0.879,0.772,0.634,0.995,0.88,0.958,0.801,0.686
NCI-H1944,0.711,0.708,,0.571,0.422,0.342,0.343,,0.309,0.259,0.748,0.733,0.621,0.647,0.586,1.08,1.09,0.998,0.862,0.552
NCI-H647,0.248,0.329,0.118,0.24,0.111,0.664,0.456,0.496,0.41,0.353,0.863,0.902,0.546,0.476,0.353,1.1,1.05,1.09,0.674,0.378
201T,1.06,1.06,1.09,1.05,0.918,0.728,0.678,0.823,0.603,0.645,0.948,0.988,0.943,0.816,0.942,1.01,1.02,1,0.867,0.966
NCI-H358,,0.312,0.208,0.464,0.117,0.734,0.642,0.25,0.382,0.132,0.41,0.425,,0.391,0.274,0.738,0.52,,0.558,0.277
NCI-H441,0.345,0.31,,0.459,0.323,0.519,0.502,,0.518,0.417,,,,,,0.542,0.584,,0.657,0.419
NCI-H1734,0.203,0.21,0.269,0.205,0.163,0.566,0.459,0.472,0.348,0.227,0.808,1.05,0.745,0.805,0.46,0.797,0.789,0.814,0.837,0.536
NCI-H1792,0.419,0.351,0.216,0.417,0.225,0.733,0.581,0.524,0.634,0.208,0.889,0.91,1,0.86,0.755,0.706,0.488,0.681,0.484,0.137
NCI-H23,0.237,0.225,0.237,0.182,0.185,0.368,0.411,,0.271,0.173,0.875,0.952,0.219,0.393,0.331,0.48,0.52,0.37,0.378,0.271
